Some test systems named below: A549; DU-145; EKVX; K562; KM12; LOX IMVI; M14; MCF7; Malme-3M; NCI-H226; NCI/ADR-RES; OVCAR-5; PC-3; SK-MEL-28; SK-MEL-2; SK-MEL-5; SK-OV-3; SW-620; TK-10.
Common to all, as to assay: growth of human tumour cells (NCI), 48 h

Each structure is given as a SMILES string.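 Dose response: 5 concentrations. Exposure: 48 h. Format: 96-well plates. Endpoint: linear interpolation; highest concentration if not reached. GI50 marks 50% less growth.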 The source made the active and inactive calls. No stated cut-off is given here; in the data, active = GI50 up to about 1.1 µM and inactive = higher. Some results are limits rather than exact numbers.

As to `COC(=O)[C@]12CC[C@H]3CN(C(=O)OCc4ccccc4)[C@H]([C@H]31)[C@H](C(=O)OCC[Si](C)(C)C)N2S(=O)(=O)c1ccc(C)cc1`, the GI50 is 18.4 µM (inactive) in the experiment with A549; > 100 µM (inactive) with DU-145; 89.9 µM (inactive) in the experiment with EKVX; 15.3 µM (inactive) in the experiment on K562; 97.3 µM (inactive) with KM12; 94.4 µM (inactive) in the experiment with LOX IMVI. The GI50 in the experiment with M14 is 26.5 µM (inactive); in the experiment with MCF7, 37.3 µM (inactive); in the experiment with Malme-3M, 96.6 µM (inactive); in the experiment on NCI-H226, > 100 µM (inactive); in the experiment on NCI/ADR-RES, > 100 µM (inactive); with OVCAR-5 it was > 100 µM (inactive). The GI50 in the experiment with PC-3 is 12.1 µM (inactive); in the experiment on SK-MEL-28, > 100 µM (inactive); in the experiment on SK-MEL-2, 96.4 µM (inactive); in the experiment with SK-MEL-5, 12.2 µM (inactive); with SK-OV-3, > 100 µM (inactive); with SW-620, > 100 µM (inactive). Moreover, in the experiment on TK-10, the GI50 is > 100 µM (inactive).

`C#CCn1ncc2c(SCc3ccccc3)ncnc21`: the GI50 in the experiment with A549 was > 100 µM (inactive); with DU-145, > 100 µM (inactive); with EKVX, 97.7 µM (inactive); with K562, 52.7 µM (inactive); with KM12 it was > 100 µM (inactive); in the experiment with LOX IMVI it was > 100 µM (inactive). For the same molecule, the GI50 in the experiment on M14 was 50.7 µM (inactive); in the experiment with MCF7, 11.4 µM (inactive); with Malme-3M, > 100 µM (inactive); in the experiment on NCI-H226 it was > 100 µM (inactive); in the experiment on NCI/ADR-RES, > 100 µM (inactive); in the experiment on OVCAR-5, > 100 µM (inactive). The GI50 in the experiment with PC-3 was 86.1 µM (inactive); with SK-MEL-28, > 100 µM (inactive); in the experiment on SK-MEL-2, > 100 µM (inactive); in the experiment with SK-MEL-5, 36.1 µM (inactive); with SK-OV-3, > 100 µM (inactive); in the experiment with SW-620, > 100 µM (inactive). Besides, the GI50 in the experiment with TK-10 was > 100 µM (inactive).

As to `CC/C(Cl)=N\OC(=O)Nc1ccc(OC)c(C)c1`, the GI50 in the experiment on A549 was 27.9 µM (inactive); in the experiment with DU-145, 28 µM (inactive); in the experiment on EKVX, 3.15 µM (inactive); in the experiment with K562, 15.7 µM (inactive); in the experiment with KM12 it was 23.8 µM (inactive); in the experiment with LOX IMVI, 10.9 µM (inactive). In addition, the GI50 was 17.9 µM (inactive) with M14; 16.7 µM (inactive) in the experiment on MCF7; 11.4 µM (inactive) in the experiment on Malme-3M; 26.4 µM (inactive) with NCI-H226; 15 µM (inactive) with NCI/ADR-RES; 30.5 µM (inactive) in the experiment with OVCAR-5. Further, the GI50 with PC-3 is 28.8 µM (inactive); in the experiment with SK-MEL-28, 23.2 µM (inactive); with SK-MEL-2, 19 µM (inactive); with SK-MEL-5 it was 18.7 µM (inactive); with SK-OV-3, 58.6 µM (inactive); in the experiment with SW-620, 24.3 µM (inactive). In addition, the GI50 in the experiment on TK-10 was 20.6 µM (inactive).

Consider `Cc1cc(C2(c3cc(C)c(O)c4ncccc34)OC(=O)c3ccccc32)c2cccnc2c1O`, for which the GI50 in the experiment on A549 is < 0.001 µM (active); in the experiment on DU-145, 0.0659 µM (active); in the experiment on EKVX, 0.0203 µM (active); with K562, 0.0776 µM (active); with KM12, 0.0668 µM (active); with LOX IMVI, 0.00601 µM (active). Moreover, the GI50 was 0.0625 µM (active) in the experiment on M14; < 0.001 µM (active) with MCF7; 1 µM (active) in the experiment with Malme-3M; 0.01 µM (active) in the experiment on NCI-H226; 0.0344 µM (active) in the experiment with NCI/ADR-RES; 11.3 µM (inactive) in the experiment on OVCAR-5. The GI50 is 0.265 µM (active) with PC-3; > 10 µM (inactive) in the experiment with SK-MEL-28; 0.262 µM (active) with SK-MEL-2; 0.0231 µM (active) with SK-MEL-5; 4.52 µM (inactive) in the experiment with SK-OV-3; 0.0304 µM (active) in the experiment on SW-620. Moreover, the GI50 in the experiment on TK-10 is > 10 µM (inactive).

Turning to `O=C(c1ccccc1)n1c(Cc2ccccc2)nc2cc(C34CC5CC(CC(C5)C3)C4)ccc21`, the GI50 in the experiment on A549 is 37.7 µM (inactive); with DU-145 it was 56.5 µM (inactive); with EKVX, 81.8 µM (inactive); in the experiment on K562, > 100 µM (inactive); in the experiment with KM12 it was 69.7 µM (inactive); in the experiment with LOX IMVI, 30.5 µM (inactive). For the same molecule, the GI50 with M14 is 43.4 µM (inactive); in the experiment with MCF7, 24.4 µM (inactive); in the experiment with Malme-3M, 29.3 µM (inactive); with NCI-H226 it was 58.3 µM (inactive); in the experiment on NCI/ADR-RES it was 31.8 µM (inactive); with OVCAR-5, 56.8 µM (inactive). Further, the GI50 was 49 µM (inactive) in the experiment with PC-3; 84.3 µM (inactive) in the experiment on SK-MEL-28; 31.9 µM (inactive) in the experiment with SK-MEL-2; 27 µM (inactive) in the experiment on SK-MEL-5; 96.2 µM (inactive) in the experiment on SK-OV-3; 80.7 µM (inactive) in the experiment with SW-620. Also, in the experiment with TK-10, the GI50 is > 100 µM (inactive).

`O=C(CSCC(=O)N/N=C\c1ccc(-c2ccccc2)cc1)N/N=C\c1ccc(-c2ccccc2)cc1`: the GI50 was 25.8 µM (inactive) in the experiment with A549; 33 µM (inactive) in the experiment with DU-145; 45.2 µM (inactive) in the experiment on EKVX; 25.8 µM (inactive) in the experiment on K562; 17.9 µM (inactive) with KM12; 16.3 µM (inactive) with LOX IMVI. Moreover, the GI50 in the experiment with M14 is 23.8 µM (inactive); with MCF7, 36.1 µM (inactive); with Malme-3M, 27.2 µM (inactive); in the experiment with NCI-H226 it was 28.8 µM (inactive); with NCI/ADR-RES, 56.4 µM (inactive); with OVCAR-5, 29.6 µM (inactive). The GI50 was 30.4 µM (inactive) in the experiment with PC-3; 29.6 µM (inactive) in the experiment on SK-MEL-28; 16 µM (inactive) with SK-MEL-2; 39.9 µM (inactive) in the experiment on SK-MEL-5; 18.9 µM (inactive) in the experiment with SK-OV-3; 16.3 µM (inactive) in the experiment with SW-620. The GI50 in the experiment on TK-10 was 26 µM (inactive).

For `O=S1(=O)c2ccccc2NC(=S)N1c1ccccc1`, the GI50 in the experiment on A549 is 6.17 µM (inactive); in the experiment on DU-145 it was 87.1 µM (inactive); in the experiment on EKVX, 32.4 µM (inactive); in the experiment with K562, 49.1 µM (inactive); in the experiment on KM12, > 77.1 µM (inactive); in the experiment on LOX IMVI, 26.7 µM (inactive). The GI50 in the experiment with M14 was 29.5 µM (inactive); in the experiment on MCF7, 63.2 µM (inactive); in the experiment with Malme-3M, 46.1 µM (inactive); with NCI-H226, 43.9 µM (inactive); in the experiment with NCI/ADR-RES it was 60.1 µM (inactive); with OVCAR-5, 92.9 µM (inactive). Besides, the GI50 in the experiment on PC-3 is 58.3 µM (inactive); with SK-MEL-28 it was > 89.9 µM (inactive); in the experiment on SK-MEL-2 it was 73.5 µM (inactive); in the experiment with SK-MEL-5, 32 µM (inactive); in the experiment on SK-OV-3, > 100 µM (inactive); in the experiment with SW-620, > 100 µM (inactive). The GI50 in the experiment on TK-10 was > 72.4 µM (inactive).

`O=c1c2ccccc2[se]n1-c1cccnc1`: the GI50 in the experiment on A549 is 40.6 µM (inactive); in the experiment on DU-145, 18.2 µM (inactive); in the experiment with EKVX, 33.4 µM (inactive); with K562 it was 40.6 µM (inactive); in the experiment with KM12, 79.3 µM (inactive); in the experiment with LOX IMVI, 24.5 µM (inactive). In addition, the GI50 in the experiment with M14 is 30.7 µM (inactive); in the experiment on MCF7 it was 29.4 µM (inactive); with Malme-3M, 21.7 µM (inactive); with NCI-H226 it was 28.4 µM (inactive); in the experiment on NCI/ADR-RES, 33.5 µM (inactive); in the experiment with OVCAR-5, 46.2 µM (inactive). In addition, the GI50 in the experiment with PC-3 was 22.3 µM (inactive); with SK-MEL-28 it was 24.7 µM (inactive); in the experiment with SK-MEL-2, 19.3 µM (inactive); with SK-MEL-5, 12.9 µM (inactive); in the experiment with SK-OV-3, > 100 µM (inactive); in the experiment with SW-620, 29 µM (inactive). For the same molecule, the GI50 in the experiment with TK-10 was 24.2 µM (inactive).

The record behind these values is ChEMBL document CHEMBL1201862, “PubChem BioAssay data set” (2004).
